This test is described as follows: Inhibition of mouse GAT2 expressed in HEK293 cells assessed as reduction in [3H]GABA uptake preincubated for 25 mins followed by [3H]GABA addition and measured after 10 mins by liquid scintillation counting method.

These results are taken from BindingDB's records for doi:10.1016/j.bmc.2019.05.001 (2019).

As usually defined, the IC50 is the midpoint of a concentration-inhibition curve. For `O=C(O)C1CCN(CCON=Cc2ccccc2-c2ccc(Cl)cc2Cl)C1` (stereo unspecified), the IC50 was determined as 53.7 µM.
